One assay has as its system HIV-1Ba.L. Description: HIV-1 infection of human monocytes in vitro (cytopathology/polykaryon formation, supernatant reverse transcriptase). It counts as cell-based. The conditions noted are these: for effect on HIV-1-induced cytopathology and supernatant RT (in words): human monocytes inoculated with HIV-1Ba.L, three weeks of culture. From the text: This aspect of the present invention provides a new method, based on a separate molecular pathway, of blocking HIV infection. The invention is based, at least in part, on Applicants' observation that CD44 (the hyaluronate receptor) facilitates HIV infection/expression in human cells. When this molecule is “blocked”by binding to the anti-CD44 antibody […] or AlG3, there is a 40-80% reduction of HIV infection/expression in normal human monocytes in vitro, as determined by inhibition of monocyte polykaryon formation and expression of viral reverse transcriptase in supernatant medium. […] To determine the importance of other monocyte cellular surface molecules in in vitro infection with HIV-1, the abilities of various murine monoclonal antibodies directed toward different monocyte membrane antigens to influence HIV-1 infection of human monocytes in vitro were determined. Monocytes from normal people were isolated by density gradients, adherence, and washing. Cells were inoculated with HIV-1Ba.L. […] three weeks of culture for reverse transcriptase (RT) activity, and the plates were examined morphologically. Antibodies AlG3 and […]

A further assay concerns PBMC (T cells). The assay can be described thus: T cell activation assay: CD2 mAb-stimulated PBMC proliferation. It counts as cell-based, human. As to conditions: compared to the results with CD44 liposomes; data not shown. The procedure: CD44 (A3D8) and control YgGl (P3X63/Ag8) antibodies were conjugated to CNBr-activated SEPHAROSE CL 4B (Pharmacia, Piscataway, N.J.) (3.0 mg IgG/ml gel). HuT 78 T Cell (CD44+) lysate was solubilized from 5×10^9 cells in 50 ml buffer (300 mM NaCl, 10 mM Na2HPO4 pH 7.4, 0.2% NaN3w/v 0.5% NP-40 v/v), 0.01% Tween 80 w/v, 0.2 mM phenylmethylsulfonyl fluoride, and 0.1 mM tosyl L-lysine chloromethyl ketone) (0° C.×30 min), centrifuged (4° C. 3000×g×15 min, 23420 ×g×30 min) filtered, precleared×2 over a P3-SEPHAROSE column, and allowed to bind overnight (4° C.) to A3D8-SEPHAROSE. The column was washed with 5 column volumes equilibration buffer, followed by 5 column volumes of 50 mM Tris, pH 7.4, 0.5% NP-40. NP-40 was exchanged for octyl glucoside (OG) (Sigma, St. Louis, Mo.) by washing with 2 column volumes 50 mM Tris pH 7.4, 1.5% OG w/v. […]
Liposomes were prepared by the method of Mimms et al ((1981) Biochemistry 20:833-840), using 1 μM purified CD44 or control glycophorin protein, 1 nM L-α-dioleoyl lecthin (Avanti Polar Lipids, Birmingham, Ala.), and 240 nM OG. Liposomes were analyzed for content of the appropriate protein using a novel labelling technique and flow cytometry. […] Fluoresceinated liposome-bead conjugates were then analyzed by flow cytometry. […]

“Also recorded” adds a separate entry of the source.

Turning to Chondroitin sulfate, the “effect on HIV-1-induced cytopathology and supernatant RT (in words)” value with HIV-1Ba.L is given as “no effect; also recorded: no or minimal inhibitory activity”.

In the case of hyaluronic acid [hyaluronate], in the assay on HIV-1Ba.L, the “effect on HIV-1-induced cytopathology and supernatant RT (in words)” value was “diminished morphological changes and RT expression”. Further, in the assay with HIV-1Ba.L (normal human monocytes in vitro, by inhibition of monocyte polykaryon formation and viral reverse transcriptase in supernatant medium), the “reduction/inhibition of HIV infection/expression” value is on record as “up to 85%”.

On to “soluble, free CD44 protein: CD44 protein affinity-purified from HuT 78 T cell lysate on A3D8-Sepharose, 80-85 kD”, for which the “effect on CD2 stimulated PBMC cultures (in words)” value with PBMC (T cells) is “Identical results”.

These data come from patent publication US6432405B1, “Method of inhibiting HIV infection with CD44 and anti-CD44 antibodies” (Duke University, priority 1991, dated 2002).
